{
  "source": "patent US20090176696A1",
  "about": "“Methods And Compositions For Modulating An Immune Response” (priority 2006, published 2009)",
  "key": {"[1]": {"system": "Bone marrow-derived dendritic cells (BMDCs)", "test": "Cytokine production (ELISA) by BMDCs pre-treated with TCT, then stimulated with TLR agonists", "assay_type": "cell-based, BALB/c mice", "experimental": "Bone marrow-derived dendritic cells (BMDCs) from BALB/c mice were pre-treated with TCT (10 μg/ml) for 1, 6 and 12 hours before being stimulated with a range of concentrations of the TLR2 agonist, Pam-3Csk (10, 100, 1000 ng/ml), the TLR4 agonist, B. pertussis LPS (100, 1000, 10,000 pg/ml) and the TLR9 agonist, CpG (10, 100, 1000 ng/ml) for a further 12 hours. The concentration range chosen for each TLR agonist was based on preliminary experiments. Cytokine and chemokine concentrations were evaluated by ELISA."}, "[2]": {"system": "KLH-specific T cell and antibody responses", "test": "TCT injection 6 hours before immunisation with KLH or KLH with alum; ex vivo spleen and lymph node responses and antibody titres", "assay_type": "in vivo, BALB/c mice", "experimental": "Cohorts of BALB/c mice were injected sub-cutaneously (s.c.) into the flank with PBS or TCT alone, and then immunised sub-cutaneously with KLH or KLH with alum 6 hours later. The adaptive immune response was assessed 14 days later by stimulating spleen and local inguinal lymph node cells with antigen ex vivo. Spleen (FIG. 6A) and lymph node (FIG. 6B) cell suspensions were cultured in the presence of various concentrations of KLH (2, 10, 50 μg/ml) and PMA/anti-CD3 or medium were used as positive and negative controls respectively. Supernatants were collected 72 hours later, fresh medium was added to the wells and cells were incubated overnight. At day 4, 2 μCi of ^3H thymidine was added to each well. Plates were incubated for a further 6 hours, and ^3H incorporation was determined.\nIn addition, supernatants were tested for IFN-gamma, IL-10, IL-4 and IL-5 by ELISA (spleen—FIG. 7 and lymph nodes—FIG. 8). KLH-specific antibody titres were also determined by ELISA (FIG. 9)."}, "[3]": {"system": "KLH-specific T cell and antibody responses", "test": "TCT injection 6 hours before immunisation with KLH and E. coli heat labile enterotoxin (LT); ex vivo lymph node responses and antibody titres", "assay_type": "in vivo, BALB/c mice", "experimental": "Groups of 5 BALB/c mice were injected subcutaneously into the flank with PBS or TCT (10 μg/mouse) and then immunised with KLH (20 μg/mouse) or KLH with E. coli heat labile enterotoxin (LT) (100 ng/mouse) 6 hours later. The T cell response was assessed 14 days later from local inguinal lymph node cells stimulated with antigen ex vivo.\nLymph node (FIG. 10) cell suspensions were cultured in the presence of various concentrations of KLH (2, 10, 50 μg/ml) and PMA/CD3 or medium were used as positive and negative controls respectively. Supernatants were collected 72 hours later. Concentrations of IFN-gamma, IL-10, IL-4 and IL-5 in supernatants were evaluated by ELISA (FIG. 10). KLH-specific antibody titres were also determined by ELISA (FIG. 11). Results are the mean responses (±SD) for 5 mice assessed individually in triplicate."}, "[4]": {"system": "KLH-specific T cell responses", "test": "Adoptive transfer of TCT-treated DCs; ex vivo lymph node T cell responses", "assay_type": "in vivo, BALB/c mice", "experimental": "Bone marrow-derived DCs from BALB/c mice were cultured in 2% heat inactivated normal mouse sera and 40 ng/ml recombinant GM-CSF for 12 days. DCs were harvested and cultured O/N at a concentration of 1×10^6 cells/ml. DCs were then incubated with KLH (20 μg/ml) alone, KLH (20 μg/ml) and TCT (10 μg/ml), KLH (20 μg/ml) plus Pam-3Csk (TLR2 agonist; 500 ng/ml), or with KLH (20 μg/ml) and TCT (10 μg/ml) and Pam-3Csk (500 ng/ml). After 2 hours incubation, cells were washed and injected sub-cutaneously (s.c.) into the flank of BALB/c mice (1×10^5 cells/mouse). T cell responses were assessed 14 days later from pooled local inguinal lymph node cells stimulated with antigen ex-vivo.\nLymph node cells from each treatment group were pooled and cultured in the presence of KLH (2, 10 and 50 μg/ml) or PMA/CD3 or medium, as positive and negative controls respectively. Supernatants were collected 72 h later for cytokine analysis (IFN-γ, IL-10, IL-4 and IL-5 were evaluated by specific ELISA FIG. 12). Fresh medium was added to the wells and cells were incubated overnight. At day 4, 2 μCi of ^3H thymidine was added to each well. Plates were incubated for a further 6 hours, after which cells and ^3H incorporation was determined (FIG. 12)."}, "[5]": {"system": "BMDC with CD4+ T cells from OVA TCR transgenic mice", "test": "TCT pre-treated BMDC cultured with OVA and CD4+ T cells from OVA TCR Tg mice; cytokines by ELISA", "assay_type": "cell-based", "settings": "DC pre-treated with TCT 10 μg/ml for 2 hours; supernatant after 4 days", "experimental": "Dendritic cells act as antigen presenting cells and also serve to direct the induction of distinct T cell responses. Therefore, we examined the influence of TCT on dendritic cells and their ability to promote T cell responses in vitro. Bone marrow-derived dendritic cells DC (BMDC) were cultured with CD4^+ T cells (4×10^5) from OVA T cell receptor (TCR) transgenic (Tg) mice. BMDC were pre-treated with TCT (10 μg/ml) or medium only for 2 hours prior to the addition of antigen (OVA 0.2-5 μg/ml) and CD4^+ T cells purified from the spleens of OVA TCR Tg mice. OVA-specific cytokine production was measured in supernatant taken after 4 days by ELISA."}, "[6]": {"system": "Bone marrow-derived dendritic cells (BMDCs)", "test": "Cytokine production (ELISA) by BMDCs pre-treated with TCT, then stimulated with TLR agonists", "assay_type": "cell-based, BALB/c mice", "remark": "listed apart in the source"}, "[7]": {"system": "hamster tracheal epithelial (HTE) cells", "settings": "isolated cultured HTE cells; cited from earlier work"}, "[8]": {"settings": "TCT 10 μg/ml for 1, 6, 12 hours, Pam-3Csk 10, 100, 1000 ng/ml for 12 hours"}, "[9]": {"settings": "TCT 10 μg/ml pre-treatment (particularly 1 hour), Pam-3Csk, B. pertussis LPS, CpG for 12 hours"}, "[10]": {"settings": "TCT 6 hours before KLH and alum"}, "[11]": {"settings": "TCT 6 hours before KLH only or KLH and alum"}, "[12]": {"settings": "TCT 6 hours before alum adsorbed KLH, day 14"}, "[13]": {"settings": "TCT 6 hours before immunisation KLH"}, "[14]": {"settings": "TCT 10 μg/mouse 6 hours before KLH and LT"}, "[15]": {"settings": "TCT 10 μg/mouse 6 hours before KLH with LT"}, "[16]": {"settings": "DCs treated with KLH and Pam-3Csk, also treated with TCT"}, "[17]": {"settings": "KLH treated DCs also treated with TCT"}},
  "note": "“Also recorded” adds a separate entry of the source.",
  "data": [
    {"smiles": "CC(=O)NC1C(OC2C3COC(O3)C(NC(C)=O)C2OC(C)C(=O)NC(C)C(=O)NC(CCC(=O)NC(CCCC(N)C(=O)NC(C)C(=O)O)C(=O)O)C(=O)O)OC(CO)C(O)C1O", "note": "(stereo not shown) [TCT, N-acetylglucosaminyl-1,6-anhydro-N-acetylmuramylalanyl-γ-glutamyldiaminopimelylalanine]", "values": [
      {"measurement": "IL-10 production by B. pertussis LPS", "setting": "[1]; LPS 10,000 pg/ml, TCT pre-treatment 1 and 6 hours", "result": "significant enhancement"},
      {"measurement": "IL-10 production in response to the TLR-9 agonist CpG", "setting": "[1]; TCT 10 μg/ml for 1, 6, 12 hours, CpG 10, 100, 1000 ng/ml for 12 hours", "result": "enhances"},
      {"measurement": "IL-6 production in response to the TLR-4 agonist B. pertussis LPS", "setting": "[1]; TCT 10 μg/ml for 1, 6, 12 hours, LPS 100, 1000, 10000 pg/ml for 12 hours", "result": "enhances"},
      {"measurement": "IL-6 production in response to the TLR-2 agonist Pam-3Csk", "setting": "[1]; [8]", "result": "enhances"},
      {"measurement": "IL-10 production in response to the TLR-2 agonist Pam-3Csk", "setting": "[1]; [8]", "result": "enhances"},
      {"measurement": "IL-6 production by all the TLR agonists examined", "setting": "[1]; [9]", "result": "significantly enhanced"},
      {"measurement": "IL-10 production by all the TLR agonists examined", "setting": "[1]; [9]", "result": "significantly enhanced"},
      {"measurement": "IL-12p40 production induced by LPS", "setting": "[1]; TCT 10 μg/ml pre-treatment, B. pertussis LPS", "result": "significantly reduced"},
      {"measurement": "IL-12p40 production induced by Pam-3Csk", "setting": "[1]; TCT 10 μg/ml pre-treatment, Pam-3Csk", "result": "significantly reduced"},
      {"measurement": "production of cytokines and chemokines examined", "setting": "[1]; TCT alone (10 μg/ml), no TLR agonist", "result": "did not induce"},
      {"measurement": "IFN-gamma production, spleen cells", "setting": "[2]; [10]", "result": "reduced"},
      {"measurement": "IL-4 production, spleen cells", "setting": "[2]; [10]", "result": "reduced"},
      {"measurement": "IL-5 production, spleen cells", "setting": "[2]; [10]", "result": "reduced"},
      {"measurement": "KLH-specific IL-10 production by lymph node cells", "setting": "[2]; [10]", "result": "severely impaired; also recorded: attenuated"},
      {"measurement": "KLH-specific IL-10 production by spleen cells", "setting": "[2]; TCT 6 hours before KLH and alum, p<0.001", "result": "significant reduction"},
      {"measurement": "antigen-specific IgG1 titres", "setting": "[2]; [11]", "result": "no significant effect"},
      {"measurement": "antigen-specific IgG2a titres", "setting": "[2]; [11]", "result": "no significant effect"},
      {"measurement": "total KLH-specific IgG production", "setting": "[2]; [11]", "result": "no significant effect"},
      {"measurement": "proliferation response to KLH, lymph node cells", "setting": "[2]; [12]", "result": "reduction"},
      {"measurement": "proliferation response to KLH, spleen cells", "setting": "[2]; [12]", "result": "reduction"},
      {"measurement": "Antigen-specific IL-5 production, lymph node cells", "setting": "[2]; [13]", "result": "reduced"},
      {"measurement": "antigen-specific IL-4 production, lymph node cells", "setting": "[2]; [13]", "result": "reduced"},
      {"measurement": "IFN-gamma production, spleen cells", "setting": "[2]; TCT before immunisation with KLH and PBS", "result": "reduced"},
      {"measurement": "proliferation response, spleen cells", "setting": "[2]; mice immunised with KLH and PBS", "result": "reduced"},
      {"measurement": "antigen-specific IFN-gamma, lymph node cells", "setting": "[2]; mice immunised with KLH and alum", "result": "abrogated"},
      {"measurement": "antigen-specific IFN-gamma production by lymph node cells", "setting": "[3]; [14]", "result": "significantly impaired"},
      {"measurement": "antigen-specific IL-4 production by lymph node cells", "setting": "[3]; [14]", "result": "significantly impaired"},
      {"measurement": "KLH-specific IL-5 production, lymph node cells", "setting": "[3]; [15]", "result": "reduction"},
      {"measurement": "KLH-specific IL-10 production, lymph node cells", "setting": "[3]; [15]", "result": "reduction"},
      {"measurement": "antigen-specific IgG1 titres", "setting": "[3]; TCT 6 hours before LT and KLH", "result": "no effect"},
      {"measurement": "antigen-specific IgG2a titres", "setting": "[3]; TCT 6 hours before LT and KLH", "result": "no effect"},
      {"measurement": "total KLH-specific IgG production", "setting": "[3]; TCT 6 hours before LT and KLH", "result": "no effect"},
      {"measurement": "antigen-specific IFN-gamma production, lymph node cells", "setting": "[4]; [16]", "result": "completely abolished"},
      {"measurement": "antigen-specific IL-10 production, lymph node cells", "setting": "[4]; [16]", "result": "completely abolished"},
      {"measurement": "KLH-specific IFN-gamma production, lymph node cells", "setting": "[4]; DCs treated with TCT and KLH", "result": "No KLH-specific IFN-gamma, IL-10 and IL-4 production was detected"},
      {"measurement": "KLH-specific proliferation by lymph node cells", "setting": "[4]; DCs treated with TCT and Pam-3Csk with KLH vs Pam-3Csk with KLH", "result": "profound impairment"},
      {"measurement": "antigen-specific IL-4 production, lymph node cells", "setting": "[4]; [17]", "result": "abolished"},
      {"measurement": "antigen-specific IL-10 production, lymph node cells", "setting": "[4]; [17]", "result": "abolished"},
      {"measurement": "proliferation by lymph node cells", "setting": "[4]; KLH treated DCs also treated with TCT vs KLH treated DCs alone", "result": "almost abolished"},
      {"measurement": "Antigen-specific IL-5 production, LN cells", "setting": "[4]; all treatment groups", "result": "not above background concentrations"},
      {"measurement": "OVA-specific IFN-γ production", "setting": "[5]", "result": "did not affect"},
      {"measurement": "OVA-specific IL-4 production", "setting": "[5]", "result": "significantly reduced"},
      {"measurement": "OVA-specific IL-5 production", "setting": "[5]", "result": "significantly reduced"},
      {"measurement": "OVA-specific IL-13 production", "setting": "[5]", "result": "significantly reduced"},
      {"measurement": "IL-10 production by dendritic cells in synergy with the TLR4 agonist MPL", "setting": "[6]", "result": "enhances"},
      {"measurement": "DNA synthesis", "setting": "[7]", "result": "inhibit DNA synthesis"}
    ]}
  ]
}
